Source: ChEMBL document CHEMBL5505958, “Optimization of sequence and chiral content enhances therapeutic potential of tilapia piscidin peptides” (Eur J Med Chem, 2024)
Activity calls are given as the source filed them.

Experiments:
Klebsiella pneumoniae [1] = assay: Antibacterial activity against Klebsiella pneumoniae BAA 2473 assessed as inhibition of bacterial growth in presence of 1 microg/ml of trypsin (reference value: 1.56 to 3.13 microM); format: functional
Klebsiella aerogenes [2] = assay: Bactericidal activity against Enterobacter aerogenes 15630 assessed as inhibition of bacterial growth incubated for 16 to 20 hrs; format: functional; details: time 16-20 hrs
Yersinia enterocolitica [3] = assay: Bactericidal activity against Yersinia enterocolitica 13999 assessed as inhibition of bacterial growth incubated for 16 to 20 hrs; format: functional; details: time 16-20 hrs
Klebsiella pneumoniae [4] = assay: Induction of morphological changes in Klebsiella pneumoniae BAA 2473 assessed as membrane deformations with protruding granules at by transmission electron microscopy analysis; format: functional, organism-based
[5] = system: Staphylococcus haemolyticus; assay: Bactericidal activity against Staphylococcus haemolyticus 15237 assessed as inhibition of bacterial growth incubated for 16 to 20 hrs; format: functional; details: time 16-20 hrs
Erythrocyte = assay: Hemolytic activity in human Red blood cells assessed as hemolysis at 200 uM incubated for 1 hrs; format: toxicity, cell-based
Salmonella enterica = assay: Antibacterial activity against Salmonella enterica 15455 assessed as inhibition of bacterial growth incubated for 16 to 20 hrs in presence of human serum; format: functional; details: time 16-20 hrs
Staphylococcus aureus [6] = assay: Antibacterial activity against Staphylococcus aureus 10780 assessed as inhibition of bacterial growth incubated for 16 to 20 hrs in presence of human serum; format: functional; details: time 16-20 hrs
Klebsiella pneumoniae [7] = assay: Antibacterial activity against Klebsiella pneumoniae BAA 2473 assessed as inhibition of bacterial growth in presence of 1 microg/ml of chymotrypsin (reference value: 1.56 to 3.13 microM); format: functional
Acinetobacter baumannii [8] = assay: Bactericidal activity against Acinetobacter baumannii 10591 assessed as inhibition of bacterial growth incubated for 16 to 20 hrs; format: functional; details: time 16-20 hrs
Salmonella typhimurium [9] = assay: Bactericidal activity against Salmonella typhimurium DT104 assessed as inhibition of bacterial growth incubated for 16 to 20 hrs; format: functional, Salmonella enterica subsp. enterica serovar Typhimurium; details: Salmonella enterica, time 16-20 hrs
Klebsiella pneumoniae [10] = assay: Bactericidal activity against Klebsiella pneumoniae BAA 2473 assessed as inhibition of bacterial growth in presence of 10 microg/ml of chymotrypsin (reference value: 1.56 to 3.13 microM); format: functional
Salmonella typhimurium [11] = assay: Bactericidal activity against Salmonella typhimurium DT104 assessed as inhibition of bacterial growth incubated for 16 to 20 hrs in presence of human serum; format: functional, Salmonella enterica subsp. enterica serovar Typhimurium; details: Salmonella enterica, time 16-20 hrs
Yersinia enterocolitica [12] = assay: Antibacterial activity against Yersinia enterocolitica 13999 assessed as inhibition of bacterial growth incubated for 16 to 20 hrs; format: functional; details: time 16-20 hrs
[13] = system: Staphylococcus haemolyticus; assay: Antibacterial activity against Staphylococcus haemolyticus 15237 assessed as inhibition of bacterial growth incubated for 16 to 20 hrs; format: functional; details: time 16-20 hrs
Klebsiella oxytoca [14] = assay: Bactericidal activity against Klebsiella oxytoca 13985 assessed as inhibition of bacterial growth incubated for 16 to 20 hrs; format: functional; details: time 16-20 hrs
Klebsiella oxytoca [15] = assay: Antibacterial activity against Klebsiella oxytoca 13985 assessed as inhibition of bacterial growth incubated for 16 to 20 hrs; format: functional; details: time 16-20 hrs
Klebsiella pneumoniae [16] = assay: Bactericidal activity against Klebsiella pneumoniae BAA 2473 assessed as inhibition of bacterial growth in presence of 10 microg/ml of proteinase K (reference value: 1.56 to 3.13 microM); format: functional
Klebsiella pneumoniae [17] = assay: Bactericidal activity against Klebsiella pneumoniae BAA 2473 assessed as inhibition of bacterial growth in presence of 0.1 microg/ml of pepsin (reference value: 1.56 to 3.13 microM); format: functional
Klebsiella pneumoniae [18] = assay: Synergistic antibacterial activity against Klebsiella pneumoniae BAA 2473 assessed as fractional inhibitory concentration index in presence of ciprofloxacin by checkerboard assay; format: functional
Klebsiella pneumoniae [19] = assay: Bactericidal activity against Klebsiella pneumoniae BAA 2473 assessed as inhibition of bacterial growth in presence of 10 microg/ml of trypsin (reference value: 1.56 to 3.13 microM); format: functional
Klebsiella pneumoniae [20] = assay: Antibacterial activity against Klebsiella pneumoniae BAA 2473 assessed as meropenem MIC; format: functional
Enterococcus faecalis [21] = assay: Bactericidal activity against Enterococcus faecalis 10066 assessed as inhibition of bacterial growth incubated for 16 to 20 hrs; format: functional; details: time 16-20 hrs
Cell membrane = assay: Induction of cell membrane depolarization in Klebsiella pneumoniae BAA 2473 assessed as increase in fluorescence intensity at 1 times MIC incubated for 40 mins by DiBAC4(3) fluorescent dye based assay; format: cell membranes
Escherichia coli [22] = assay: Bactericidal activity against Escherichia coli 10675 assessed as inhibition of bacterial growth incubated for 16 to 20 hrs in presence of human serum; format: functional; details: time 16-20 hrs
Klebsiella pneumoniae [23] = assay: Bactericidal activity against Klebsiella pneumoniae BAA 2473 assessed as inhibition of bacterial growth in presence of 1 microg/ml of pepsin (reference value: 1.56 to 3.13 microM); format: functional
Enterococcus faecalis [24] = assay: Antibacterial activity against Enterococcus faecalis 10066 assessed as inhibition of bacterial growth incubated for 16 to 20 hrs; format: functional; details: time 16-20 hrs
Staphylococcus aureus [25] = assay: Bactericidal activity against Staphylococcus aureus 10780 assessed as inhibition of bacterial growth incubated for 16 to 20 hrs; format: functional; details: time 16-20 hrs
Vibrio vulnificus = assay: Antibacterial activity against Vibrio vulnificus 204 assessed as inhibition of bacterial growth incubated for 16 to 20 hrs in presence of human serum; format: functional; details: time 16-20 hrs
Klebsiella aerogenes [26] = assay: Antibacterial activity against Enterobacter aerogenes 15630 assessed as inhibition of bacterial growth incubated for 16 to 20 hrs; format: functional; details: time 16-20 hrs
Klebsiella pneumoniae [27] = assay: Antibacterial activity against Klebsiella pneumoniae BAA 2473 assessed as inhibition of bacterial growth in presence of 10 microg/ml of trypsin (reference value: 1.56 to 3.13 microM); format: functional
Escherichia coli [28] = assay: Antibacterial activity against Escherichia coli 10675 assessed as inhibition of bacterial growth incubated for 16 to 20 hrs; format: functional; details: time 16-20 hrs
Pseudomonas aeruginosa [29] = assay: Bactericidal activity against Pseudomonas aeruginosa 19660 assessed as inhibition of bacterial growth incubated for 16 to 20 hrs in presence of human serum; format: functional; details: time 16-20 hrs
Acinetobacter baumannii [30] = assay: Antibacterial activity against Acinetobacter baumannii 10591 assessed as inhibition of bacterial growth incubated for 16 to 20 hrs; format: functional; details: time 16-20 hrs
Rhizopus arrhizus = assay: Fungicidal activity against Rhizopus oryzae 34550 assessed as inhibition of fungal growth incubated for 16 to 20 hrs in presence of human serum; format: functional; details: time 16-20 hrs
Klebsiella pneumoniae [31] = assay: Antibacterial activity against Klebsiella pneumoniae BAA 2473 assessed as inhibition of bacterial growth in presence of 10 microg/ml of proteinase K (reference value: 1.56 to 3.13 microM); format: functional
Acinetobacter baumannii [32] = assay: Bactericidal activity against Acinetobacter baumannii 10591 assessed as inhibition of bacterial growth incubated for 16 to 20 hrs in presence of human serum; format: functional; details: time 16-20 hrs
Klebsiella pneumoniae [33] = assay: Bactericidal activity against Klebsiella pneumoniae BAA 2473 assessed as inhibition of bacterial growth in presence of 0.1 microg/ml of chymotrypsin (reference value: 1.56 to 3.13 microM); format: functional
Enterococcus faecium [34] = assay: Antibacterial activity against Enterococcus faecium 10067 assessed as inhibition of bacterial growth incubated for 16 to 20 hrs; format: functional; details: time 16-20 hrs
Enterococcus faecium [35] = assay: Bactericidal activity against Enterococcus faecium 10067 assessed as inhibition of bacterial growth incubated for 16 to 20 hrs; format: functional; details: time 16-20 hrs
Staphylococcus aureus [36] = assay: Bactericidal activity against Staphylococcus aureus 10780 assessed as inhibition of bacterial growth incubated for 16 to 20 hrs in presence of human serum; format: functional; details: time 16-20 hrs
Pseudomonas aeruginosa [37] = assay: Antibacterial activity against Pseudomonas aeruginosa 19660 assessed as inhibition of bacterial growth incubated for 16 to 20 hrs in presence of human serum; format: functional; details: time 16-20 hrs

CC(C)C[C@H](NC(=O)[C@@H](C)NC(=O)[C@@H](CCCCN)NC(=O)[C@H](CC(C)C)NC(=O)[C@@H](CC(C)C)NC(=O)[C@@H](CCCCN)NC(=O)[C@H](CCCCN)NC(=O)[C@@H](CC(C)C)NC(=O)[C@H](N)Cc1ccccc1)C(=O)N[C@H](Cc1ccccc1)C(=O)N[C@H](CO)C(=O)N[C@@H](C)C(=O)N1CCC[C@@H]1C(=O)N[C@H](CCCCN)C(=O)N[C@@H](C)C(=O)N[C@H](CC(C)C)C(=O)N[C@H](CCCCN)C(=O)N[C@@H](CCCNC(=N)N)C(=O)N[C@H](CC(C)C)C(=O)N[C@H](CC(C)C)C(=O)N[C@@H](CCCNC(=N)N)C(=O)N[C@H](CCCNC(=N)N)C(=O)N[C@H](CCCNC(=N)N)C(=O)N[C@@H](CCCNC(=N)N)C(=O)N[C@@H](CCCNC(=N)N)C(=O)O
3.13 µM: MBC (Klebsiella aerogenes [2]) | MBC (Yersinia enterocolitica [3]) | MBC (Acinetobacter baumannii [8]) | MBC (Salmonella typhimurium [9]) | MIC (Yersinia enterocolitica [12]) | MBC (Klebsiella oxytoca [14]) | MIC (Klebsiella oxytoca [15]) | MIC (Klebsiella aerogenes [26]) | MBC (Pseudomonas aeruginosa [29]) | MIC (Acinetobacter baumannii [30]) | MBC (Acinetobacter baumannii [32]) | MIC (Enterococcus faecium [34])
Non-Toxic: Activity (Erythrocyte)
0.562: fractional inhibitory concentration index (FICI) (Klebsiella pneumoniae [18])
active: Activity (Klebsiella pneumoniae [4]) | Activity (Cell membrane)
> 25 µM: MIC (Enterococcus faecalis [24])
100 µM: MFC (Rhizopus arrhizus)
0.78 µM: MIC (Klebsiella pneumoniae [1]) | MIC (Salmonella enterica) | MIC (Klebsiella pneumoniae [7]) | MBC (Klebsiella pneumoniae [10]) | MBC (Escherichia coli [22]) | MIC (Klebsiella pneumoniae [27]) | MIC (Klebsiella pneumoniae [31]) | MBC (Klebsiella pneumoniae [33])
> 100 µM: MBC (Staphylococcus aureus [36])
1.56 µM: MBC [5] | MIC [13] | MBC (Klebsiella pneumoniae [16]) | MBC (Klebsiella pneumoniae [17]) | MBC (Klebsiella pneumoniae [19]) | MBC (Klebsiella pneumoniae [23]) | MIC (Escherichia coli [28])
400 µM: MIC (Klebsiella pneumoniae [20])
6.25 µM: MIC (Staphylococcus aureus [6]) | MBC (Salmonella typhimurium [11]) | MBC (Staphylococcus aureus [25]) | MIC (Pseudomonas aeruginosa [37])
12.5 µM: MBC (Enterococcus faecalis [21]) | MIC (Vibrio vulnificus) | MBC (Enterococcus faecium [35])
